Reference: patent US20250313546A1, “NUCLEIC ACID BINDERS” (UNIVERSITY OF STRATHCLYDE, priority 2022, published 2025)
In brackets after ≈: the same amount, converted by molar mass. Like-named read-outs stand apart in the source and are kept apart here.

Key:
[1] = tested on: Staphylococcus aureus (ATCC 43300); test: Antibacterial MIC, broth microdilution (CLSI); assay type: cell-based
[2] = tested on: Enterococcus faecalis (ATCC 51299); test: Antibacterial MIC, broth microdilution (CLSI); assay type: cell-based; conditions: Enterococcus faecalis, ATCC51299; read-out: MIC80 E. faecalis
[3] = tested on: Escherichia coli (ATCC 25922); test: Antibacterial MIC, broth microdilution (CLSI); assay type: cell-based; conditions: Escherichia coli, ATCC25922; read-out: MIC80 E. coli
Aspergillus fumigatus = test: Expanded set of filamentous fungi, MIC broth microdilution (CLSI); assay type: cell-based
Fusarium oxysporum = test: as above; assay type: cell-based; conditions: MIC at 50% inhibition
Fusarium solani = test: as above; assay type: cell-based; conditions: MIC at 50% inhibition
Scedosporium spp. = test: as above; assay type: cell-based
Lomentospora prolificans = test: as above; assay type: cell-based; conditions: isolate S2, MIC at 50% inhibition
Paecilomyces variotii = test: as above; assay type: cell-based; conditions: isolate MYA-3630, MIC at 50% inhibition
Rhizopus arrhizus = test: as above; assay type: cell-based
Blastomyces dermatitidis = test: as above; assay type: cell-based
Candida parapsilosis = test: Expanded set of yeasts, MIC broth microdilution (CLSI); assay type: cell-based; conditions: MIC at 50% inhibition; for MIC50: Lodderomyces parapsilosis
C. albicans = test: as above; assay type: cell-based; conditions: MIC at 50% inhibition; for MIC50: Candida albicans
C. guilliiermondii = test: as above; assay type: cell-based; conditions: MIC at 50% inhibition
[4] = tested on: Genomic double stranded DNA (salmon); test: Fluorescence intercalator displacement (FID) assay, SYBR-safe probe; conditions: 20 μM compound, 30° C., lower % = stronger binding
Summary of the method: (§1)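 Compound at 20 μM mixed with 3.76 ng/mL polyAU dsRNA or salmon genomic dsDNA and 12500-fold diluted SybrSafe in 1 mM phosphate buffer pH 7.4, then heated to 30 °C and fluorescence read. Reduction is expressed as normalised %, with nucleic acid plus probe as maximum and probe alone as minimum.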

[5] = tested on: PolyAU double stranded RNA; test: as above; conditions: 20 μM compound, 30° C., lower % = stronger binding
Summary of the method: as §1

C. neoformans (F10025) = conditions: Cryptococcus neoformans, read-out: MIC99 C. neoformans
[6] = tested on: A. fumigatus A1160 (MFIG001); conditions: Aspergillus fumigatus, read-out: MIC99 A. fumigatus A1160
[7] = tested on: Rhizopus arrhizus (NEQAS12.35321); conditions: read-out: MIC99 Rhizopus arrhizus
Experimental: The Minimum Inhibitory Concentration (MIC, at 99% inhibition) of the compounds was determined using the broth microdilution method as recommended by EUCAST (EUCAST Definitive Document E.DEF 9.3.2, Method for the determination of broth dilution minimum inhibitory concentrations of antifungal agents for conidia forming moulds and EUCAST Definitive Document E.DEF 7.3.2 Method for the determination of broth dilution minimum inhibitory concentrations of antifungal agents for yeasts).

[8] = tested on: Candida glabrata (ACPF3309); conditions: Nakaseomyces glabratus, read-out: MIC99 Candida glabrata
[9] = tested on: Scedosporium prolificans (F2746); conditions: Lomentospora prolificans, read-out: MIC99 Scedosporium prolificans

`[H]/N=C(\CCNC(=O)c1cc(NC(=O)c2cc(NC(=O)c3ccc(C=Cc4ccc(N(C)C)cc4)nc3)cn2C)cn1C)NC` [Ia9, (E)-6-(4-(dimethylamino)styryl)-N-(5-((5-((3-imino-3-(methylamino)propyl)carbamoyl)-1-methyl-1H-pyrrol-3-yl)carbamoyl)-1-methyl-1H-pyrrol-3-yl)nicotinamide] was tested, and the “S. aureus Selectivity Indices, Group” value ([1]; SI, IC50 (μM)/MIC80 (μM), HEK293 cytotoxicity, Alkyl Amidines and NH Pyrroles) was “C (Group C: 5 < SI <= 10)”, the MIC80 ([1]; Staphylococcus aureus, ATCC43300, read-out: MIC80 S. aureus) was 5 to 25 µM (≈ 2.98 to 14.9 µg/mL) and the MIC80 [2] was 25 to 100 µM (≈ 14.9 to 59.6 µg/mL). For the same compound, the MIC80 [3] was greater than 100 µM, the MIC50 (Aspergillus fumigatus; isolate AF293, MIC at 50% inhibition) was 1 to 8 mg/L (≈ 1.68 to 13.4 µM) and the MIC50 (Aspergillus fumigatus; isolate DI15-106, MIC at 50% inhibition) was 1 to 8 mg/L (≈ 1.68 to 13.4 µM). It also gave an MIC50 (Aspergillus fumigatus; isolate DI15-116, MIC at 50% inhibition) of 1 to 8 mg/L (≈ 1.68 to 13.4 µM), an MIC50 (Aspergillus fumigatus; isolate DI19-187, MIC at 50% inhibition) of 1 to 8 mg/L (≈ 1.68 to 13.4 µM) and an MIC50 (Aspergillus fumigatus; isolate DI19-230, MIC at 50% inhibition) of 1 to 8 mg/L (≈ 1.68 to 13.4 µM). It also gave an MIC50 (Aspergillus fumigatus; isolate DI19-231, MIC at 50% inhibition) of 1 to 8 mg/L (≈ 1.68 to 13.4 µM), an MIC50 (Aspergillus fumigatus; isolate DI19-232, MIC at 50% inhibition) of 1 to 8 mg/L (≈ 1.68 to 13.4 µM) and an MIC50 (Aspergillus fumigatus; isolate DI19-233, MIC at 50% inhibition) of 1 to 8 mg/L (≈ 1.68 to 13.4 µM). It also gave an MIC50 (Aspergillus fumigatus; isolate DI19-234, MIC at 50% inhibition) of 1 to 8 mg/L (≈ 1.68 to 13.4 µM), an MIC50 (Aspergillus fumigatus; isolate DI19-236, MIC at 50% inhibition) of 1 to 8 mg/L (≈ 1.68 to 13.4 µM) and an MIC50 (Aspergillus fumigatus; isolate DI19-237, MIC at 50% inhibition) of 1 to 8 mg/L (≈ 1.68 to 13.4 µM). The MIC50 (Aspergillus fumigatus; isolate DI20-95, MIC at 50% inhibition) was 1 to 8 mg/L (≈ 1.68 to 13.4 µM), the MIC50 (Aspergillus fumigatus; isolate DI20-103, MIC at 50% inhibition) was 1 to 8 mg/L (≈ 1.68 to 13.4 µM) and the MIC50 (Fusarium oxysporum; Fusarium oxysporum, isolate F2) was no more than 1 mg/L. For the same compound, the “MIC50 Fusarium oxysporum” value (Fusarium oxysporum; isolate F3) was “*** (*** means MIC50 <= 1 μg/mL)”, the MIC50 (Fusarium solani; Fusarium solani, isolate F4) was no more than 1 mg/L and the “MIC50 Fusarium solani” value (Fusarium solani; isolate DI19-284) was “*** (*** means MIC50 <= 1 μg/mL)”. The MIC50 (Scedosporium spp.; isolate S1, MIC at 50% inhibition) was 1 to 8 mg/L (≈ 1.68 to 13.4 µM), the MIC50 (Scedosporium spp.; isolate S3, MIC at 50% inhibition) was no more than 1 mg/L and the MIC50 (Lomentospora prolificans) was no more than 1 mg/L. It also gave an MIC50 (Paecilomyces variotii) of 1 to 8 mg/L (≈ 1.68 to 13.4 µM), an MIC50 (Rhizopus arrhizus; isolate 99-880, MIC at 50% inhibition) of 1 to 8 mg/L (≈ 1.68 to 13.4 µM) and an MIC50 (Rhizopus arrhizus; isolate 99-892, MIC at 50% inhibition) of 1 to 8 mg/L (≈ 1.68 to 13.4 µM). For the same compound, the MIC50 (Rhizopus arrhizus; isolate RA3, MIC at 50% inhibition) was 1 to 8 mg/L (≈ 1.68 to 13.4 µM), the MIC50 (Blastomyces dermatitidis; isolate BD1, MIC at 50% inhibition) was 1 to 8 mg/L (≈ 1.68 to 13.4 µM) and the MIC50 (Blastomyces dermatitidis; isolate BD2, MIC at 50% inhibition) was 1 to 8 mg/L (≈ 1.68 to 13.4 µM). The MIC50 (Blastomyces dermatitidis; isolate BD3, MIC at 50% inhibition) was 1 to 8 mg/L (≈ 1.68 to 13.4 µM), the MIC50 (Candida parapsilosis; ATCC22019, isolate ATCC 22019, read-out: MIC50 Candida parapsilosis) was 1 to 8 mg/L (≈ 1.68 to 13.4 µM) and the MIC50 (Candida parapsilosis; isolate CP1, read-out: MIC50 C. parapsilosis) was 1 to 8 mg/L (≈ 1.68 to 13.4 µM). For the same compound, the “MIC50 C. parapsilosis” value (Candida parapsilosis; isolate CP2) was “** (** means 1 μg/mL < MIC50 <= 8 μg/mL)”, the “MIC50 C. parapsilosis” value (Candida parapsilosis; isolate CP3) was “** (** means 1 μg/mL < MIC50 <= 8 μg/mL)” and the MIC50 (C. albicans; isolate CA3) was 1 to 8 mg/L (≈ 1.68 to 13.4 µM). The MIC50 (C. albicans; isolate SC5314) was 1 to 8 mg/L (≈ 1.68 to 13.4 µM), the “MIC50 C. albicans” value (C. albicans; isolate CA90028) was “** (** means 1 μg/mL < MIC50 <= 8 μg/mL)” and the MIC50 (C. guilliiermondii; isolate Cgui1) was 1 to 8 mg/L (≈ 1.68 to 13.4 µM). For the same compound, the “MIC50 C. guilliiermondii” value (C. guilliiermondii; isolate Cgui2) was “** (** means 1 μg/mL < MIC50 <= 8 μg/mL)”, the “MIC50 C. guilliiermondii” value (C. guilliiermondii; isolate Cgui3) was “** (** means 1 μg/mL < MIC50 <= 8 μg/mL)” and the “% Normalised Fluorescence with gDNA” value [4] was 13%. The “% Normalised Fluorescence with polyAU RNA” value [5] was 19%, the MIC99 (C. neoformans (F10025)) was less than 5 mg/L and the MIC99 [6] was 5 to 25 mg/L (≈ 8.39 to 42 µM). It also gave an MIC99 [7] of 5 to 25 mg/L (≈ 8.39 to 42 µM), an MIC99 [8] of 5 to 25 mg/L (≈ 8.39 to 42 µM) and an MIC99 [9] of 5 to 25 mg/L (≈ 8.39 to 42 µM).
